Measurements taken from patent US10183944B2 (Asana Biosciences, LLC, priority 2011, dated 2019).
Counter-ions that a name gives are not always drawn.

What was measured:
[1] = molecular target: Syk (356-635 amino acids) catalytic domain (Homo sapiens (Human), UniProt P43405); test: Inhibition of enzymatic Syk kinase activity (radiometric); assay type: biochemical; settings: read-out: IC50 Syk
Outline: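 Radiometric filter-binding format: 32P transfer from γ-32P-ATP onto pG4T, scintillation-counted after acid washes of P81 paper. Syk kinase domain (356-635), 0.035–7.5 ng per reaction, was exposed to compound for 30 minutes at room temperature before a 10-minute, 30° C. reaction with ATP (100 μM stock). Inhibition derived from counts with versus without compound.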

[2] = molecular target: JAK2 (Homo sapiens (Human), UniProt O60674); test: Inhibition of enzymatic JAK2 kinase activity (TR-FRET); assay type: biochemical; settings: read-out: IC50 JAK
Text: The objective of this assay was to screen compounds in a Time-resolved fluorescence resonance energy transfer (TR-FRET) Enzymatic assay method for their potential to inhibit JAK2 (Janus kinase) activity.
TR-FRET assays are homogeneous proximity assays where Eu-labeled antiphosphotyrosine antibody binds to the phosphorylated substrates labeled with Ulight fluorescence acceptor. Eu can transfer energy to Ulight accepter in the complex and the interaction of two dye-labeled binding partners is detected by the energy transfer between a donor and an acceptor dye, and the subsequent light emission by the acceptor dye. The intensity of the light emission is proportional to the level of Ulight peptide phosphorylation.
Two μL of 10% DMSO in blank, substrate control and positive control wells and 2 μL of test compound in test wells was added. Thirteen μL of assay buffer in blank and substrate control wells and 13 μL of Enzyme buffer mix in positive and test wells was added. The reaction mixture was incubated for 30 minutes at RT on a plate shaker. Ultra Light-pGT substrate (5 μL) [poly Glu-Tyr (4:1) labeled with U Light TM dye, a tyrosine kinase substrate] and ATP mix was added to all wells. The reaction plate was incubated for 60 minutes at RT on a plate shaker. The reaction was stopped by adding 40 mM EDTA (10 μL) in buffer. Ten μL of antibody was added to all the wells. The plate was read in a Wallac® 1420 Multilabel Counter Victor 3 instrument (Ex: 340 nm Em: 615 & 665 nm) The following calculations were made:
F@ 665 Value-Buffer blank
F@ 615 Value-Buffer blank
Ratio of F@665/F@615-Substrate Blank
% Activity=(Test Sample/Positive control)*100%
Inhibition=(100−% Activity)

Chain of JAK2 (O60674 808-1132): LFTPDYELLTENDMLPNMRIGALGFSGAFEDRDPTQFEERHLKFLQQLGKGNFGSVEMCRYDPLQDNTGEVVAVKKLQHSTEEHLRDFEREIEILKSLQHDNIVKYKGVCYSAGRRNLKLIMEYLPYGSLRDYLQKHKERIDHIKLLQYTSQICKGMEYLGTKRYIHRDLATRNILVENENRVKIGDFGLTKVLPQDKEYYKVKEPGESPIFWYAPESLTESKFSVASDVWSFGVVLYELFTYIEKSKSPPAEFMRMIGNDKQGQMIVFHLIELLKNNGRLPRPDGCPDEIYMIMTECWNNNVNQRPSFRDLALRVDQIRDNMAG

SMILES | IC50 [1] [nM] | IC50 [2] [nM]
O=C(O)[C@H]1CO[C@H](COc2ccc(Nc3nc(N4CCCCCC4)nc4cn[nH]c(=O)c34)cc2)CO1 [Example 124, (2R,5S)-5-((4-((2-(azepan-1-yl)-5-oxo-5,6-dihydropyrimido[4,5-d]pyridazin-4-yl)amino)phenoxy)methyl)-1,4-dioxane-2-carboxylic acid] | < 10 | < 10
O=C(O)C[C@H]1CC[C@H](c2ccc(Nc3nc(N4CCCCCC4)nc4cn[nH]c(=O)c34)cc2)CC1 [Example 129, 2-((1R,4R)-4-(4-((2-(azepan-1-yl)-5-oxo-5,6-dihydropyrimido[4,5-d]pyridazin-4-yl)amino)phenyl)cyclohexyl)acetic acid] | < 10 | < 10
O=C(O)C1CC12CCN(c1ccc(Nc3nc(N4CCCCCC4)nc4cn[nH]c(=O)c34)cn1)CC2 (stereo not shown) [Example 134] | < 50 | < 10
O=C(O)C1CC12CCN(c1ccc(Nc3nc(N4CCCCCC4)nc4cn[nH]c(=O)c34)cc1F)CC2 (stereo not shown) [Example 135, 6-(4-((2-(azepan-1-yl)-5-oxo-5,6-dihydropyrimido[4,5-d]pyridazin-4-yl)amino)-2-fluorophenyl)-6-azaspiro[2.5]octane-1-carboxylic acid] | < 10 | < 10
CC(C)(O)C1CCN(c2ccc(Nc3nc(N4CCCCCC4)nc4cn[nH]c(=O)c34)cc2)CC1 [Example 139, 2-(azepan-1-yl)-4-((4-(4-(2-hydroxypropan-2-yl)piperidin-1-yl)phenyl)amino)pyrimido[4,5-d]pyridazin-5(6H)-one] | < 50 | < 10
CC(C)(C(=O)O)C1CCN(c2ccc(Nc3nc(N4CCCCCC4)nc4cn[nH]c(=O)c34)cc2)CC1 [Example 142, 2-(1-(4-((2-(azepan-1-yl)-5-oxo-5,6-dihydropyrimido[4,5-d]pyridazin-4-yl)amino)phenyl)piperidin-4-yl)-2-methylpropanoic acid] | < 50 | < 10
N#CCC1CCN(c2nc(Nc3ccc(N4CCC5(CC4)CC5C(=O)O)nc3)c3c(=O)[nH]ncc3n2)CC1 (stereo not shown) [Example 148, 6-(5-((2-(4-(cyanomethyl)piperidin-1-yl)-5-oxo-5,6-dihydropyrimido[4,5-d]pyridazin-4-yl)amino)pyridin-2-yl)-6-azaspiro[2.5]octane-1-carboxylic acid] | < 50 | < 50
CC1CCN(c2nc(Nc3ccc(OCCN4CCNCC4)cc3)c3c(=O)[nH]ncc3n2)CC1 [Example 156, 2-(4-methylpiperidin-1-yl)-4-((4-(2-(piperazin-1-yl)ethoxy)phenyl)amino) pyrimido[4,5-d]pyridazin-5(6H)-one hydrochloride] | < 50 | < 100
O=c1[nH]ncc2nc(N3CCCCCC3)nc(Nc3ccc(OCCC4CCNCC4)cc3)c12 [Example 168, 2-(azepan-1-yl)-4-((4-(2-(piperidin-4-yl)ethoxy)phenyl)amino)pyrimido[4,5-d]pyridazin-5(6H)-one] | < 50 | < 50
CC(C)N(CCOc1ccc(Nc2nc(N3CCCCCC3)nc3cn[nH]c(=O)c23)cc1)C(C)C [Example 188, 2-(azepan-1-yl)-4-((4-(2-(diisopropylamino)ethoxy)phenyl)amino) pyrimido[4,5-d]pyridazin-5(6H)-one] | < 50 | < 50
CCN1CCN(CCc2ccc(Nc3nc(N4CCC(CC#N)CC4)nc4cn[nH]c(=O)c34)cc2)CC1 [Example 197, 2-(1-(4-((4-(2-(4-ethylpiperazin-1-yl)ethyl)phenyl)amino)-5-oxo-5,6-dihydropyrimido[4,5-d]pyridazin-2-yl)piperidin-4-yl)acetonitrile] | < 10 | < 10

Further lines, results first:

IC50 [1] [nM] | IC50 [2] [nM] | SMILES
< 100 | < 50 | O=C(O)CC1CCN(CCCOc2ccc(Nc3nc(N4CCCCCC4)nc4cn[nH]c(=O)c34)cc2)CC1 [Example 126, 2-(1-(3-(4-((2-(azepan-1-yl)-5-oxo-5,6-dihydropyrimido[4,5-d]pyridazin-4-yl)amino)phenoxy)propyl)piperidin-4-yl) acetic acid]
< 10 | < 10 | O=C(O)CCC1CCN(c2ccc(Nc3nc(N4CCCCCC4)nc4cn[nH]c(=O)c34)cc2)CC1 [Example 130, 3-(1-(4-((2-(azepan-1-yl)-5-oxo-5,6-dihydropyrimido[4,5-d]pyridazin-4-yl)amino)phenyl)piperidin-4-yl)propanoic acid]
< 50 | < 50 | O=c1[nH]ncc2nc(N3CCCCCC3)nc(Nc3ccc(OCCCN4CCNCC4)cc3)c12 [Example 136, 2-(azepan-1-yl)-4-((4-(3-(piperazin-1-yl)propoxy)phenyl)amino)pyrimido[4,5-d]pyridazin-5(6H)-one]
< 10 | < 10 | CC(C)(C(=O)O)N1CCN(c2ccc(Nc3nc(N4CCCCCC4)nc4cn[nH]c(=O)c34)cc2)CC1 [Example 140, 2-(4-(4-((2-(azepan-1-yl)-5-oxo-5,6-dihydropyrimido[4,5-d]pyridazin-4-yl)amino)phenyl)piperazin-1-yl)-2-methylpropanoic acid]
< 50 | < 10 | O=C(O)C1CC12CCN(c1ccc(Nc3nc(N4CCCCCCC4)nc4cn[nH]c(=O)c34)cc1)CC2 (stereo not shown) [Example 141, 6-(4-((2-(azocan-1-yl)-5-oxo-5,6-dihydropyrimido[4,5-d]pyridazin-4-yl)amino)phenyl)-6-azaspiro[2.5]octane-1-carboxylic acid]
< 50 | > 100 | CC(C)(C(=O)O)C1CCN(c2ccc(Nc3nc(-c4ccccc4)nc4cn[nH]c(=O)c34)cc2)CC1 [Example 143, 2-methyl-2-(1-(4-((5-oxo-2-phenyl-5,6-dihydropyrimido[4,5-d]pyridazin-4-yl)amino)phenyl)piperidin-4-yl)propanoic acid]
< 100 | < 100 | O=C(O)CN1CCN(c2ccc(Nc3nc(N4CCCCCC4)nc4cn[nH]c(=O)c34)cn2)CC1 [Example 144, 2-(4-(5-((2-(azepan-1-yl)-5-oxo-5,6-dihydropyrimido[4,5-d]pyridazin-4-yl)amino)pyridin-2-yl)piperazin-1-yl)acetic acid]
< 50 | > 100 | N#CCC1CCN(c2nc(Nc3ccc(OCCN4CCNCC4)cc3)c3c(=O)[nH]ncc3n2)CC1 [Example 150, 2-(1-(5-oxo-4-((4-(2-(piperazin-1-yl)ethoxy)phenyl)amino)-5,6-dihydropyrimido[4,5-d]pyridazin-2-yl)piperidin-4-yl)acetonitrile]
< 50 | > 100 | O=c1[nH]ncc2nc(-c3ccccc3)nc(Nc3ccc(OCCN4CCNCC4)cc3)c12 [Example 152, 2-phenyl-4-((4-(2-(piperazin-1-yl)ethoxy)phenyl)amino)pyrimido[4,5-d]pyridazin-5(6H)-one]
< 100 | < 10 | O=C1CN(c2ccc(Nc3nc(N4CCCCCC4)nc4cn[nH]c(=O)c34)cc2)CCN1 [Example 165, 2-(azepan-1-yl)-4-((4-(3-oxopiperazin-1-yl)phenyl)amino)pyrimido[4,5-d]pyridazin-5(6H)-one]
< 50 | < 10 | CN(C)CCOc1ccc(Nc2nc(N3CCCCCC3)nc3cn[nH]c(=O)c23)cc1 [Example 167, 2-(azepan-1-yl)-4-((4-(2-(dimethylamino)ethoxy)phenyl)amino)pyrimido[4,5-d]pyridazin-5(6H)-one]
> 100 | > 100 | O=c1[nH]ncc2nc(N3CCCCC3)nc(Nc3ccc(OCCN4CCNCC4)nc3)c12 [Example 181, 4-((6-(2-(piperazin-1-yl)ethoxy)pyridin-3-yl)amino)-2-(piperidin-1-yl)pyrimido[4,5-d]pyridazin-5(6H)-one]
< 100 | < 10 | O=c1[nH]ncc2nc(N3CCCCCC3)nc(Nc3ccc(OCCN4CCNCC4)nc3)c12 [Example 182, 2-(azepan-1-yl)-4-((6-(2-(piperazin-1-yl)ethoxy)pyridin-3-yl)amino)pyrimido[4,5-d]pyridazin-5(6H)-one]
< 10 | < 10 | O=c1[nH]ncc2nc(N3CCCCCC3)nc(Nc3ccc(N4CCC(CCO)CC4)cc3)c12 [Example 195, 2-(azepan-1-yl)-4-((4-(4-(2-hydroxyethyl)piperidin-1-yl)phenyl)amino) pyrimido[4,5-d]pyridazin-5(6H)-one]
< 10 | < 10 | N#CCC1CCN(c2nc(Nc3ccc(N4CCC(CCO)CC4)cc3)c3c(=O)[nH]ncc3n2)CC1 [Example 196, 2-(1-(4-((4-(4-(2-hydroxyethyl)piperidin-1-yl)phenyl)amino)-5-oxo-5,6-dihydropyrimido[4,5-d]pyridazin-2-yl)piperidin-4-yl)acetonitrile]
